Laboratory results taken from ChEMBL document CHEMBL5584348, “Exploring Degradation of Intrinsically Disordered Protein Yes-Associated Protein Induced by Proteolysis TArgeting Chimeras” (J Med Chem, 2024).
Values belong to the compound of their own block, whether it stands above or below them. Activity calls are given as the source filed them. The calls are words filed in the database; no cut-off is given here.

How the values were obtained:
[1] = target: Transcriptional enhancer factor TEF-1 (Homo sapiens) (UniProt P28347); experiment: Inhibition of TEAD transcriptional activity in human HEK293T cells incubated for 24 hrs by luciferase reporter assay; format: cell-based
Huh-7 [2] = experiment: Antitumor activity against human Huh-7 cells xenografted in immunodeficient male NSG mouse assessed as tumor growth inhibition at 100 mg/kg, po administered every 3 days for 24 days; format: functional; conditions: Huh-7, 576 h, time 24 day, read-out: TGI
[3] = target: T1, von Hippel-Lindau disease tumor suppressor/Transcriptional coactivator YAP1 (Homo sapiens, UniProt P40337+P46937); experiment: PROTAC activity at YAP/VHL in human NCI-H226 cells assessed as induction of YAP degradation incubated for 48 hrs by Western blot analysis; format: cell-based
Target sequence in this assay (P40337 whole entry): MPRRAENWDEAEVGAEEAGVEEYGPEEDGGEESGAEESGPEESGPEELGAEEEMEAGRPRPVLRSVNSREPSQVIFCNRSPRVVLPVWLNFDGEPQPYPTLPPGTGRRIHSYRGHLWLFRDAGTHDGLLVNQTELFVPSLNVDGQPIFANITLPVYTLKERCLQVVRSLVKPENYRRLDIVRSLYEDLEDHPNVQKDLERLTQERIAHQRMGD
Target sequence in this assay (P46937 whole entry): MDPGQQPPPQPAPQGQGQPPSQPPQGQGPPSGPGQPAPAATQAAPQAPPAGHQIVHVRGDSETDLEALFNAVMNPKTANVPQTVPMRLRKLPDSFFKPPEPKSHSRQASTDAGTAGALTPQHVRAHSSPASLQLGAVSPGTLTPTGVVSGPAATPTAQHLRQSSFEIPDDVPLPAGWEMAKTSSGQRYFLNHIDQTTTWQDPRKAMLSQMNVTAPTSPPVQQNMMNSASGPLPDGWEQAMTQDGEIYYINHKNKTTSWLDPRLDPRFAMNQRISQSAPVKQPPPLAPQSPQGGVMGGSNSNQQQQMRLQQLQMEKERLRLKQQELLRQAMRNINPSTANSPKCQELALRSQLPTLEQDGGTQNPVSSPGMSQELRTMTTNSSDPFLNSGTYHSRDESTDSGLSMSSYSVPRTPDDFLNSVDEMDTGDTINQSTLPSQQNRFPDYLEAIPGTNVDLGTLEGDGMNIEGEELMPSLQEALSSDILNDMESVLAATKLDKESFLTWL

NCI-H226 [4] = experiment: Antiproliferative activity against human NCI-H226 cells assessed as cell killing at 10 uM incubated for 3 days by CCK-8 assay; format: functional, cell-based; conditions: time 3.0 day
[5] = target: T1, von Hippel-Lindau disease tumor suppressor/Transcriptional coactivator YAP1; experiment: PROTAC activity at YAP/VHL in human NCI-H226 cells assessed as reduction in CTGF expression incubated for 48 hrs by Western blot analysis; format: cell-based; conditions: dose 2.5-20 µM
Target sequence in this assay (P40337 whole entry, looked up): as the sequence (P40337 whole entry) above
Target sequence in this assay (P46937 whole entry, looked up): as the sequence (P46937 whole entry) above

[6] = target: T1, von Hippel-Lindau disease tumor suppressor/Transcriptional coactivator YAP1; experiment: PROTAC activity at YAP/VHL in human NCI-H226 cells assessed as induction of YAP degradation at 10 uM incubated for 48 hrs by Western blot analysis; format: cell-based
Target sequence in this assay (P40337 whole entry, looked up): as the sequence (P40337 whole entry) above
Target sequence in this assay (P46937 whole entry, looked up): as the sequence (P46937 whole entry) above

NCI-H226 [7] = experiment: Antiproliferative activity against human NCI-H226 cells assessed as cell growth inhibition incubated for 3 days by CCK-8 assay; format: functional, cell-based; conditions: time 3.0 day
NCI-H226 [8] = experiment: Antiproliferative activity against human NCI-H226 cells assessed as cell killing upto 3.13 uM incubated for 4 days by CCK-8 assay; format: functional, cell-based; conditions: time 4.0 day
[9] = target: T2, Protein cereblon/Transcriptional coactivator YAP1 (Homo sapiens) (UniProt P46937+Q96SW2); experiment: PROTAC activity at YAP/CRBN in human NCI-H226 cells assessed as induction of YAP degradation 10 uM incubated for 48 hrs by Western blot analysis; format: cell-based
[10] = target: T1, von Hippel-Lindau disease tumor suppressor/Transcriptional coactivator YAP1; experiment: PROTAC activity at YAP/VHL in human NCI-H226 cells assessed as induction of YAP degradation 10 uM incubated for 48 hrs by Western blot analysis; format: cell-based
Target sequence in this assay (P40337 whole entry, looked up): as the sequence (P40337 whole entry) above
Target sequence in this assay (P46937 whole entry, looked up): as the sequence (P46937 whole entry) above

[11] = target: T2, Protein cereblon/Transcriptional coactivator YAP1 (Homo sapiens); experiment: PROTAC activity at YAP/CRBN in human NCI-H226 cells assessed as induction of YAP degradation at 10 uM incubated for 48 hrs by Western blot analysis; format: cell-based
NCI-H226 [12] = experiment: Antiproliferative activity against human NCI-H226 cells assessed as cell killing at 12.5 uM incubated for 3 days by CCK-8 assay; format: functional, cell-based; conditions: time 3.0 day
[13] = target: T2, Protein cereblon/Transcriptional coactivator YAP1 (Homo sapiens); experiment: PROTAC activity at YAP/CRBN in human NCI-H226 cells assessed as effect on YAP level at 10 uM incubated for 48 hrs by Western blot analysis; format: cell-based
[14] = target: T1, von Hippel-Lindau disease tumor suppressor/Transcriptional coactivator YAP1; experiment: PROTAC activity at YAP/VHL in human NCI-H226 cells assessed as effect on YAP level at 10 uM incubated for 48 hrs by Western blot analysis; format: cell-based
Target sequence in this assay (P40337 whole entry, looked up): as the sequence (P40337 whole entry) above
Target sequence in this assay (P46937 whole entry, looked up): as the sequence (P46937 whole entry) above

[15] = target: T1, von Hippel-Lindau disease tumor suppressor/Transcriptional coactivator YAP1; experiment: PROTAC activity at YAP/VHL in human NCI-H226 cells assessed as reduction in YAP level at 10 uM incubated for 48 hrs by Western blot analysis; format: cell-based
Target sequence in this assay (P40337 whole entry, looked up): as the sequence (P40337 whole entry) above
Target sequence in this assay (P46937 whole entry, looked up): as the sequence (P46937 whole entry) above

NCI-H226 [16] = experiment: Antiproliferative activity against NF2 deficient- human NCI-H226 cells assessed as maximum cell growth inhibition incubated for 4 days by CCK-8 assay relative to control; format: functional; conditions: time 4 day
NCI-H226 [17] = experiment: Antiproliferative activity against NF2 deficient- human NCI-H226 cells assessed as cell growth inhibition incubated for 4 days by CCK-8 assay; format: functional, cell-based; conditions: NCI-H226, 96 h
Huh-7 [18] = experiment: Antiproliferative activity against human Huh-7 cells overexpressing YAP assessed as cell growth inhibition incubated for 4 days by CCK-8 assay; format: functional, cell-based; conditions: Huh-7, 96 h
[19] = target: Transcriptional coactivator YAP1 (Homo sapiens) (UniProt P46937); experiment: Induction of YAP degradation in human NCI-H290 cells at 5 uM relative to control; format: cell-based
Sequence of Transcriptional coactivator YAP1 (Homo sapiens) (P46937 whole entry): as above

T2 sequence (P46937 whole entry, looked up): as the sequence (P46937 whole entry) above
T2 sequence (Q96SW2 whole entry, looked up): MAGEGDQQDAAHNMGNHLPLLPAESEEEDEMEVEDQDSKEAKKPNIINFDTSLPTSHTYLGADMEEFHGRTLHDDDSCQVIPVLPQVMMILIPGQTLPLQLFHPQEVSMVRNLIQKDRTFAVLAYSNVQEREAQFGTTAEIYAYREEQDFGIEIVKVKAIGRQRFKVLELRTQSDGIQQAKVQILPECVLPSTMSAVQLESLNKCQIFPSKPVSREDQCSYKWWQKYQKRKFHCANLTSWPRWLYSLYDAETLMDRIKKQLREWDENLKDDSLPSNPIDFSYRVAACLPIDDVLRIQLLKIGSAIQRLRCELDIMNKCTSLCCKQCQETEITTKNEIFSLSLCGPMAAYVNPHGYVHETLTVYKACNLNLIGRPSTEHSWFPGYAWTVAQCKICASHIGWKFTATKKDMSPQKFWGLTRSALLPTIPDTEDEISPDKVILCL
Sequence of Transcriptional enhancer factor TEF-1 (Homo sapiens) (P28347 whole entry): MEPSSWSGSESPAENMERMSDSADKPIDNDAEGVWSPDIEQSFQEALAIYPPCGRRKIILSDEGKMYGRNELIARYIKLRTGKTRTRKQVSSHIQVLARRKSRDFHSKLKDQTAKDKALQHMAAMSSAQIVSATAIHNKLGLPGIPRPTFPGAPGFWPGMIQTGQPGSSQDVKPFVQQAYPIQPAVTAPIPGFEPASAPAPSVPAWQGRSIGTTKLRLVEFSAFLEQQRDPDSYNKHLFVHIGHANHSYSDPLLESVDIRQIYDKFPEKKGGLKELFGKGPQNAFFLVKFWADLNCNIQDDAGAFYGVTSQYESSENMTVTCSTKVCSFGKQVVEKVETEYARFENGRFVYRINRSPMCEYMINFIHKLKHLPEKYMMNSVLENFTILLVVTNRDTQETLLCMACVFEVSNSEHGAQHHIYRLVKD

DC50 [3]: 14.9 µM
Activity [5]: Dose-Dependent Effect
Compound: COc1cc(-c2cc(-c3ccccc3)nc3c2CC(=O)Nc2ccccc2-3)ccc1OCCOCC(=O)N[C@H](C(=O)N1C[C@H](O)C[C@H]1C(=O)N[C@@H](C)c1ccc(-c2scnc2C)cc1)C(C)(C)C
Activity (NCI-H226 [4]): inactive

Activity [6]: inactive
Compound: COc1ccc(-c2cc(-c3ccccc3)nc3c2CC(=O)Nc2ccccc2-3)cc1OCCOCC(=O)N[C@H](C(=O)N1C[C@H](O)C[C@H]1C(=O)N[C@@H](C)c1ccc(-c2scnc2C)cc1)C(C)(C)C
Activity (NCI-H226 [7]): Active
Activity (NCI-H226 [4]): inactive

Activity [9]: inactive
Compound: COc1ccc(-c2cc(-c3ccc(OCC(=O)NCCOCCOCCOCCNc4cccc5c4C(=O)N(C4CCC(=O)NC4=O)C5=O)cc3)nc3c2CC(=O)Nc2ccccc2-3)cc1OC (configuration not stated)
Activity (NCI-H226 [8]): inactive

Activity [10]: inactive
Compound: COc1ccc(-c2cc(-c3ccc(OCCCCCC(=O)N[C@H](C(=O)N4C[C@H](O)C[C@H]4C(=O)N[C@@H](C)c4ccc(-c5scnc5C)cc4)C(C)(C)C)cc3)nc3c2CC(=O)Nc2ccccc2-3)cc1OC
Activity (NCI-H226 [8]): inactive

Activity [10]: inactive
Compound: COc1ccc(-c2cc(-c3ccc(OCCCCCCCC(=O)N[C@H](C(=O)N4C[C@H](O)C[C@H]4C(=O)N[C@@H](C)c4ccc(-c5scnc5C)cc4)C(C)(C)C)cc3)nc3c2CC(=O)Nc2ccccc2-3)cc1OC
Activity (NCI-H226 [8]): inactive

Activity [11]: inactive
Compound: COc1ccc(-c2cc(-c3ccccc3)nc3c2CC(=O)Nc2ccccc2-3)cc1OCC(=O)NCCOCCOCCNc1cccc2c1C(=O)N(C1CCC(=O)NC1=O)C2=O (configuration not stated)
Activity (NCI-H226 [7]): Active
Activity (NCI-H226 [4]): inactive

Activity [13]: inactive
Compound: COc1cc(-c2cc(-c3ccccc3)nc3c2CC(=O)Nc2ccccc2-3)ccc1OCC(=O)NCCOCCOCCOCCNc1cccc2c1C(=O)N(C1CCC(=O)NC1=O)C2=O (configuration not stated)
Activity (NCI-H226 [12]): inactive

Activity [10]: inactive
Compound: COc1ccc(-c2cc(-c3ccc(OCCOCCOCCC(=O)N[C@H](C(=O)N4C[C@H](O)C[C@H]4C(=O)N[C@@H](C)c4ccc(-c5scnc5C)cc4)C(C)(C)C)cc3)nc3c2CC(=O)Nc2ccccc2-3)cc1OC
Activity (NCI-H226 [8]): inactive

Activity [6]: inactive
Compound: COc1ccc(-c2cc(-c3ccccc3)nc3c2CC(=O)Nc2ccccc2-3)cc1OCCOCCC(=O)N[C@H](C(=O)N1C[C@H](O)C[C@H]1C(=O)N[C@@H](C)c1ccc(-c2scnc2C)cc1)C(C)(C)C
Activity (NCI-H226 [7]): Active
Activity (NCI-H226 [4]): inactive

Activity [11]: inactive
Compound: COc1ccc(-c2cc(-c3ccccc3)nc3c2CC(=O)Nc2ccccc2-3)cc1OCC(=O)NCCOCCNc1cccc2c1C(=O)N(C1CCC(=O)NC1=O)C2=O (configuration not stated)
Activity (NCI-H226 [7]): Active
Activity (NCI-H226 [4]): inactive

Activity [15]: Active
Compound: COc1cc(-c2cc(-c3ccccc3)nc3c2CC(=O)Nc2ccccc2-3)ccc1OCCOCCOCCOCCC(=O)N[C@H](C(=O)N1C[C@H](O)C[C@H]1C(=O)N[C@@H](C)c1ccc(-c2scnc2C)cc1)C(C)(C)C
Activity (NCI-H226 [4]): inactive

TEAD transcriptional inhibition (active/inactive call) [1]: Active
Compound: COc1cc(-c2cc(-c3ccccc3)nc3c2CC(=O)Nc2ccccc2-3)ccc1OCCOC(C)=O

Activity [10]: inactive
Compound: COc1ccc(-c2cc(-c3ccc(OCCCCCCCCCC(=O)N[C@H](C(=O)N4C[C@H](O)C[C@H]4C(=O)N[C@@H](C)c4ccc(-c5scnc5C)cc4)C(C)(C)C)cc3)nc3c2CC(=O)Nc2ccccc2-3)cc1OC
Activity (NCI-H226 [8]): inactive

TEAD transcriptional inhibition (active/inactive call) [1]: Active
Compound: COc1ccc(-c2cc(-c3ccccc3)nc3c2CC(=O)Nc2ccccc2-3)cc1OCCOC(C)=O

Activity [9]: inactive
Compound: COc1ccc(-c2cc(-c3ccc(OCC(=O)NCCOCCNc4cccc5c4C(=O)N(C4CCC(=O)NC4=O)C5=O)cc3)nc3c2CC(=O)Nc2ccccc2-3)cc1OC (configuration not stated)
Activity (NCI-H226 [8]): inactive

Activity [9]: inactive
Compound: COc1ccc(-c2cc(-c3ccc(OCC(=O)NCCOCCOCCNc4cccc5c4C(=O)N(C4CCC(=O)NC4=O)C5=O)cc3)nc3c2CC(=O)Nc2ccccc2-3)cc1OC (configuration not stated)
Activity (NCI-H226 [8]): inactive

Activity [11]: inactive
Compound: COc1ccc(-c2cc(-c3ccccc3)nc3c2CC(=O)Nc2ccccc2-3)cc1OCC(=O)NCCOCCOCCOCCNc1cccc2c1C(=O)N(C1CCC(=O)NC1=O)C2=O (configuration not stated)
Activity (NCI-H226 [7]): Active
Activity (NCI-H226 [4]): inactive

Activity [6]: inactive
Compound: COc1ccc(-c2cc(-c3ccccc3)nc3c2CC(=O)Nc2ccccc2-3)cc1OCCOCCOCCC(=O)N[C@H](C(=O)N1C[C@H](O)C[C@H]1C(=O)N[C@@H](C)c1ccc(-c2scnc2C)cc1)C(C)(C)C
Activity (NCI-H226 [7]): Active
Activity (NCI-H226 [4]): inactive

Further lines, the compound ahead of its results:

Compound: COc1ccc(-c2cc(-c3ccccc3)nc3c2CC(=O)Nc2ccccc2-3)cc1O
TEAD transcriptional inhibition (active/inactive call) [1]: Active

Compound: COc1ccc(-c2cc(-c3ccccc3)nc3c2CC(=O)Nc2ccccc2-3)cc1OCc1ccccc1
TEAD transcriptional inhibition (active/inactive call) [1]: Active

Compound: CNC(=O)c1cc(Oc2ccc(NC(=O)Nc3ccc(Cl)c(C(F)(F)F)c3)cc2)ccn1 [SORAFENIB]
inhibition in vivo at 100 mg/kg (Huh-7 [2]): 76%

Compound: COc1cc(-c2cc(-c3ccccc3)nc3c2CC(=O)Nc2ccccc2-3)ccc1O
TEAD transcriptional inhibition (active/inactive call) [1]: Active

Compound: COc1cc(-c2cc(-c3ccccc3)nc3c2CC(=O)Nc2ccccc2-3)ccc1OCCOCCC(=O)N[C@H](C(=O)N1C[C@H](O)C[C@H]1C(=O)N[C@@H](C)c1ccc(-c2scnc2C)cc1)C(C)(C)C
Activity (NCI-H226 [4]): inactive

Compound: COc1cc(-c2cc(-c3ccccc3)nc3c2CC(=O)Nc2ccccc2-3)ccc1OCC(=O)NCCOCCOCCNc1cccc2c1C(=O)N(C1CCC(=O)NC1=O)C2=O (configuration not stated)
Activity (NCI-H226 [4]): inactive

Compound: COc1cc(-c2cc(-c3ccccc3)nc3c2CC(=O)Nc2ccccc2-3)ccc1OCCCCCC(=O)N[C@H](C(=O)N1C[C@H](O)C[C@H]1C(=O)N[C@@H](C)c1ccc(-c2scnc2C)cc1)C(C)(C)C
Activity (NCI-H226 [4]): inactive

Compound: COc1cc(-c2cc(-c3ccccc3)nc3c2CC(=O)Nc2ccccc2-3)ccc1OCC(=O)NCCOCCNc1cccc2c1C(=O)N(C1CCC(=O)NC1=O)C2=O (configuration not stated)
Activity (NCI-H226 [4]): inactive

Compound: COc1cc(-c2cc(-c3ccccc3)nc3c2CC(=O)Nc2ccccc2-3)ccc1OCCCCCCCCCC(=O)N[C@H](C(=O)N1C[C@H](O)C[C@H]1C(=O)N[C@@H](C)c1ccc(-c2scnc2C)cc1)C(C)(C)C
Activity [14]: inactive
Activity (NCI-H226 [12]): inactive

Compound: COc1cc(-c2cc(-c3ccccc3)nc3c2CC(=O)Nc2ccccc2-3)ccc1OCCCCCCCC(=O)N[C@H](C(=O)N1C[C@H](O)C[C@H]1C(=O)N[C@@H](C)c1ccc(-c2scnc2C)cc1)C(C)(C)C
Activity (NCI-H226 [4]): inactive

Compound: CC(=O)c1ccc(OCc2ccccc2)cc1
TEAD transcriptional inhibition (active/inactive call) [1]: Active

Compound: COc1ccc(-c2cc(-c3ccccc3)nc3c2CC(=O)Nc2ccccc2-3)cc1OC
inhibition (INH) (NCI-H226 [16]): 95%
IC50 (NCI-H226 [17]): 3.9 µM
IC50 (Huh-7 [18]): 69 µM

Compound: CN[C@@H](C)C(=O)N[C@H](C(=O)N1CCC[C@H]1c1nc(C(=O)c2cccc(OCCOCCNC(=O)[C@]34CC[C@@H](C(C)=O)[C@@H]3[C@H]3CC[C@@H]5[C@@]6(C)CC[C@H](O)C(C)(C)[C@@H]6CC[C@@]5(C)[C@]3(C)CC4)c2)cs1)C1CCCCC1
Activity [19]: < 50%
